Results from US8987449B2, “Medicine for treating ischemic brain injury and its sequelae, and preparation method thereof” (Haimin Lei, priority 2011, dated 2015).

Experiments:
[1] = test system: rat primary cortical neurons; experiment: Proliferation of primary neuronal cells by MTT and morphology observation; format: cell-based; details: 60 μM; normal neurons; control 0.7567 ± 0.1109
Experimental: SD pregnant rats: pregnant for 16-18 d, certificate number: SCXK (Jing) 2006-0009, provided by BeiJing Vital River Laboratories.
LQC-T4 (prepared by the method of example 5), the purity was ≧98%, determined by high performance liquid chromatography (HPLC), which met the requirement of the experiment. The powder was carefully sealed and preserved at 4° C. The prepared LQC-T4 was dissolved using dimethyl sulfoxide and made into […] storing liquid for use.
Referring to the document [HongQingtao, TangYipeng, Neurons of cerebral cortex of newborn rats in in vitro primary culture, Chinese Journal of Neuroanatomy, 1994, 10(3):259-262], the pregnant 16-18 d SD rat was executed by dislocation. The fetal rat was taken out in an aseptic environment, the meninges and blood steak were stripped, the cortex was separated and cut into 1 mm^3 tissue block (all carried out on ice). The tissue block was digested at 37[…] with 0.1% pancreatic enzyme-0.02% EDTA for 20 min. Digesting was stopped using DMEM containing fetal calf serum and the number of the cells was adjusted to 5×10^5 cells ml^−1. The resultant cells were inoculated into a 96 well plate treated by 0.001% polylysine and the plate was put in a 37° C. 5% CO2 incubation box to be cultured. The cultivation liquid was changed (totally) after 48 h and add adenine arabinoside was added (final concentration is 5 μM) to inhibit the excessive proliferation of non-neurons. The cultivation liquid was changed after 48 h with fresh cultivation liquid and culture was continued. And the cultivation liquid was changed every 3 days afterward.
The cultivation liquid was sucked away on the eighth day of neuron culture. DMEM culture-medium containing 0.15% DMSO was added to the blank group, while 60 μM, 30 μM, 15 μM LQC-T4, 60 μM tetramethylpyrazine and 60 μM vanillic acid were respectively added to the administration group. Ten parallel wells were set as a group. And they were put into a 37° C., 5% CO2 incubation box to continue culturing for 24 h.
5 mg/ml MTT 20 μl was added to each well at the time of 4 h before the experiment ended and the cultivation liquid was sucked away. DMSO 200 μl was added to each well. When the purple particles were completely dissolved, the enzyme-linked immune assay was used to measure the optical density at 540 nm.
(§1) The SAS 8.2 statistical software was used to carry out the one-way ANOVA variance analysis and the difference among the groups were compared by t-test.

[2] = test system: ICR mice; experiment: Buccal respiration duration of mice after head cutting (4° C. icy water swimming model); format: in vivo, mouse; details: 80 mg/kg intragastrically once a day for 10 days, control 32.45 ± 5.49
Experimental: ICR mice, half female and half male, weighing 19-21 g, certificate No.: SCXK (Jing) 2006-0009, provided by BeiJing Vital River Laboratories.
LQC-T4, tetramethylpyrazine (TMP), vanillic acid, Nimodipine (ShanDong XinHua Pharmaceutical CO., Ltd, batch No.: 0908164)
160 male ICR mice were divided into 8 groups randomly by weight, each of which contained 20 mice, wherein 0.5% CMC-NA (0.2 ml·10 g^−1) was administrated intragastrically to the blank control group; 6.7 mg·kg^−1 Nimodipine (0.2 ml·10 g^−1) was administrated intragastrically to the positive control group; 100 mg·kg^−1 TMP (0.2 ml·10 g^−1) was administrated intragastrically to the TMP group, three different dosage of 200 mg·kg^−1, 100 mg·kg^−1, 50 mg·kg^−1 were administrated intragastrically to the LQC-T4 (0.2 ml·10 g^−1) group relatively, and 125 mg·kg^−1 TMP+80 mg·kg^−1 vanillitc acid (0.2 ml·10 g^−1) was administrated intragastrically respectively. The medicines were continuously administrated once a day for 10 days.
The literature was referred to: [LiuZhenquan, SunHui, Xuqiuping, etc., Experimental Study on the Brain-Protective Effect of the Effective Fraction of Naoxin Formula in the Mouse Model of with Load-Bearing Swimming in Cold Water, Journal of Beijing University of Traditional Chinese Medicine [J], 2004, 27(4): 54-56] and the method recorded therein was improved. The head was rapidly cut with a scissor at post mortem when the mouse swam in 4° C. icy water for 3 min after the final administration. After head being cut, the buccal respiration duration of mouse was recorded.
as §1

[3] = test system: chicken chorioallantoic membrane (CAM); experiment: Effect of LQC-T on CAM angiogenesis (CAM method, vessel count); format: in vivo; details: 20 μg/chicken embryo; for small vessel angiogenesis of CAM model, Medicine group (X ± S): 72 h incubation, number of small vessels, blank group 8.67 ± 1.03
Experimental: Embryonated chicken eggs of Lohmann of German, egg weight 50-60 g (embryo experiment center of Chinese Agriculture University)
LQC-T (1-6) (prepared by the methods of examples 2-7), wherein the purity was ≧98%, determined by high performance liquid chromatography (HPLC), meeting the requirements of the experiment. The powder was carefully sealed and preserved at 4° C.
Aseptic gelatin sponge, which was made into a wafer having a diameter of 5 mm by a hole-puncher in advance, was used as sample carrier. The prepared LQC-T series compounds were added according to 20 μg/chicken embryo in an aseptic environment. The 0.9% physiological saline was used in a blank group. The samples were air-dried in an aseptic environment.
A hatching egg after disinfection was put into a 37° C. incubation box with air sac upward until the seventh day of incubation. The egg embryo was disinfected using alcohol at a super clean bench, and then a small hole was drilled at the top of the egg embryo using a dental drill, and the nearby egg shell and shell membrane were removed carefully to form the opening with the size of about 1.2 cm×1.2 cm. After spotting the location for applying the sample, the air sac was broken with injection needle at the interface between air sac and the yolk and then 1-2 drops of aseptic physiological saline was injected so that the air sac membrane was separated from CAM membrane. Then the upper air sac membrane was slightly removed with a nipper to expose the lower CAM membrane.
The medicine-containing carrier was softly put by a nipper at the locations of CAM and yolk cyst membrane with fewer vessels, the opening was then sealed with aseptic transparent tape and incubation was continued for another 72 h.
After the incubation, the transparent tape blocking the chicken embryo air sac was removed with a nipper. The liquid of equal-volumetrically mixed methanol/acetone 1-2 ml was added and fixed at room temperature for 10 min. The CAM membrane was carefully removed and put it onto a slide. Then it was observed and a photograph was taken. The effect of the compounds on angiogenesis was evaluated by the count analytic method using the numbers of great vessels, medium vessels and small vessels arranged radially around by the carrier.
All the data were statistically analyzed using SPSS11.0 software pack. The difference between the administration group and the blank group was given through one-way variance analysis. P<0.05 had statistical significance.

Molecule | small vessel angiogenesis of CAM model, Medicine group (X ± S) [3] | other results
COc1cc(C(=O)O)ccc1O [Vanillic acid, vanillic acid, reference compound] | – | MTT(A540), 24 h after the administration [1]: 0.8820 ± 0.1469; respiration duration [2]: 35.73 ± 5.66 s
COc1cc(C(=O)OCc2nc(C)c(C)nc2C)ccc1O [LQC-T3, (3,5,6-trimethylpyrazine-2-yl)methyl-3-methoxy-4-hydroxybenzoate] | 10.4 ± 2.16 | –
Cc1nc(C)c(COc2ccc(C=O)cc2OCc2nc(C)c(C)nc2C)nc1C [LQC-T5, 3,4-bis((3,5,6-trimethylpyrazine-2-yl)methoxy)benzaldehyde] | 14.17 ± 5.19 | –
Cc1nc(C)c(COC(=O)/C=C/c2ccc(OCc3nc(C)c(C)nc3C)c(OCc3nc(C)c(C)nc3C)c2)nc1C [LQC-T6] | 8.83 ± 3.71 | –
Cc1nc(C)c(COC(=O)c2ccc(OCc3nc(C)c(C)nc3C)c(OCc3nc(C)c(C)nc3C)c2)nc1C [LQC-T2, (3,5,6-trimethylpyrazine-2-yl)methyl-3,4-bis((3,5,6-trimethylpyrazine-2-yl)methoxy) benzoate] | 14.17 ± 1.47 | effect on growth of new (small) vessels compared with the blank group ([3]; result in words): significant promoting effect
(3,5,6-trimethylpyrazin-2-yl)methyl 4-hydroxy-3-methoxybenzoate [LQC-T1] | 12.7 ± 2.73 | –
